Data taken from patent publication US6258845A (priority 1999, dated 2001).
Entries after “also recorded” stand apart in the source; their conditions may differ. Like-named read-outs stand apart in the source and are kept apart here.

Key:
[1] = tested on: Caco-2 parental cells, Ki-ras clone #60 and Ki-ras clone #66; test: Viable cell number (trypan blue dye exclusion), growth of Caco-2 parental and Ki-ras transfected cells; type: cell-based, human
Experimental: Effect of sulindac sulfide and sulfone on the growth of Ki-ras transfected cells. […] Viable cell number was determined by trypan blue dye exclusion.
Caco-2 cells were maintained in Modified Eagle Media (GIBCO, Grand Island, N.Y.) supplemented with 10% fetal bovine serum and a 1% penicillin (10,000 units/ml)-streptomycin (10,000 mg/ml) solution (GIBCO, Grand Island, N.Y.). Transfected Caco-2 cells resistant to neomycin were maintained in 400 μg/ml G418. Cells were maintained at 37° in the presence of 5% CO2 in air.
All cells were passed into new medium every two to three days, just prior to confluence. Drug additions were performed at the time of cell seeding and in MEM for each cell line unless otherwise noted. […] The two metabolites of sulindac, sulindac sulfone and sulfide, were obtained from Cell Pathways, Inc. (Horsham Pa.).
Caco-2 cells were removed from the monolayer by treatment with trypsin (1500 units/ml, Calbiochem, San Diego, Calif.)-EDTA (.7mM) and counted using a hemocytometer. A sample of the cell suspension was combined in a 1:1 volume ratio with trypan blue dye (GIBCO, Grand Island, N.Y.), and at least two independently prepared suspensions were counted on a hemocytometer, two counts each. For all cell types, viability was determined by the percentage of cells able to exclude the trypan blue dye.

tumor cells = conditions: cited from earlier work
COX (cyclooxygenase) = conditions: cited from earlier work
Caco-2 parental cells = test: Induction of apoptosis (light microscopy) in Caco-2 parental cells; type: cell-based, human; conditions: Caco-2 parental
Experimental: (§1) FIG. 3. […] Apoptosis was determined by light microscopy.
(§2) FIG. 8. […] Cells were grown over a period of 6 days. Cells were harvested at various days (0, 2, 4 and 6 days), spun onto slides and stained. Apoptosis was determined by light microscopy. Percentage of apoptotic cells was calculated as the number of apoptotic cells out of the total cells counted times 100. At least 500 cells were counted for each sample.
(§3) Cells were grown over a period of 6 days. Cells were harvested at various days (0, 2, 4 and 6 days), spun onto slides and stained. Apoptosis was determined by light microscopy. Percentage of apoptotic cells was calculated as the number of apoptotic cells out of the total cells counted times 100.

[2] = tested on: carcinogenesis in rodent/animal models; conditions: in vivo; cited from earlier work
[3] = tested on: Ki-ras codon 12 mutations in the AOM-treated rat; test: Ki-ras codon 12 mutations in colon tumors of AOM-treated rats (PCR-RFLP); type: in vivo; conditions: 0-1000 ppm in the food
From the text: A PCR™-RFLP assay is used to screen for codon 12 mutations in Ki-ras in colon adenocarcinomas from AOM-treated rats, because more than 60% of Ki-ras mutations in these tumors occur at this site (Jiang et al., 1989). PCR™ will be performed using primers designed to create a BstN1 restriction endonuclease site at codon 12 of the Ki-ras gene as described (Searle et al., 1982) a G→C change made at codon 11.3 bp from the 3' end of the wildtype upstream primer: 5'[…]-3') Ki-ras mutations are determined by whether a change had occurred in the BsN1 site. If a mutation had occurred, no change in base pair length from uncut PCR™ fragments would occur. Restriction enzyme digested PCR™ products were electrophoresed on a 3.5% agarose gel, stained with ethidium bromide, and visualized under […] UV trans-illumination for the presence of mutations.
Putative Ki-ras mutations detected by this assay method in colon adenocarcinomas obtained from AOM-treated rats will be confirmed by DNA sequencing methods.

Ki-ras clone #60 = test: Induction of apoptosis (light microscopy) in Ki-ras clone 60; type: cell-based, human
Experimental: as §1, §2, §3

[4] = tested on: Caco-2 and clone 60 cells; test: Clonogenic assay (colony-forming efficiency), Caco-2 and clone 60 cells; type: cell-based, human
[5] = tested on: Ki-ras transfected Caco-2 cells; test: Induction of apoptosis in Ki-ras transfected versus parental Caco-2 cells; type: cell-based, human; conditions: 120 μM sulfide, 600 μM sulfone
Experimental: as §1

Ki-ras clone #60 cells = test: Clonogenic assay (colony-forming efficiency), Ki-ras clone 60; type: cell-based, human; conditions: with or without DFMO; normalized survival
[6] = tested on: AOM-treated rat model of colon carcinogenesis; test: Colon carcinogenesis in the AOM-treated rat / rodent model; conditions: sulfoxide and sulfone forms
[7] = 600 μM sulfone vs 120 μM sulfide

CC1=C(CC(=O)O)c2cc(F)ccc2/C1=C\c1ccc(S(C)(=O)=O)cc1 [sulindac sulfone]
Ki-ras selective toxicity / Ki-ras-specific effect on growth ([1]; 120 μM sulindac sulfide or 600 μM sulindac sulfone): nor did sulindac sulfide or sulfone exert a Ki-ras-specific effect on growth | number of viable cells ([1]; 600 μM sulindac sulfone): pronounced cell loss beginning 6 days after treatment | induction of apoptosis in tumor cells (tumor cells): induces apoptosis in tumor cells | COX / prostaglandin synthesis inhibition (COX (cyclooxygenase)): does not | COX / prostaglandin synthesis inhibition (COX (cyclooxygenase); listed as Sulindac sulfone): lacks COX-inhibitory activity | induction of apoptosis, sulfone compared with sulfide (Caco-2 parental cells; [7]): more pronounced than with the sulfide | time of peak apoptosis (Caco-2 parental cells; 600 μM sulindac sulfone): 8 days | chemoprevention / inhibition of tumor development in animal models [2]: inhibits tumor development in several rodent models of carcinogenesis | dose-dependency of Ki-ras mutation reduction [3]: some indication of dose-dependency | frequency of AOM-induced codon 12 mutations in Ki-ras ([3]; from 19/31 (61%)): 14% | incidence of AOM-induced codon 12 mutations in Ki-ras ([3]; from 19/31 (61%)): 5/35 | induction of apoptosis, sulfone compared with sulfide (Ki-ras clone #60; [7]): more pronounced than with the sulfide | time of peak apoptosis (Ki-ras clone #60; 600 μM sulindac sulfone): 6 days | IC50 ([4]; Homo sapiens, Caco-2, 24 h treatment, replated, colony formation, read-out: 50% decrease in cell number): ~800 µM | effect of Ki-ras activation on viability / colony-forming efficiency after sulindac metabolite ([4]; increasing concentrations, 24 h): did not reveal any differences in colony-forming efficiency between Ki-ras transfectants and parental Caco-2 cells | onset of apoptosis in Ki-ras transfected cells compared with parental cells [5]: accelerate the onset of apoptosis; also recorded: occurred several days earlier in Ki-ras transfected cells than in parental cells | resistance of clone 60 to sulindac sulfone (Ki-ras clone #60 cells): slightly more resistant to the effects of sulindac sulfone than the parental cells | inhibition of carcinogenesis in the AOM-treated rat [6]: inhibit carcinogenesis in the AOM-treated rat, with similar potencies
